Measured values published in the supplement of paper PMC6045584.
± gives the standard deviation of the averaged measurements.

Key:
[1] = compound: CCn1c(C(=O)N(C2CC2)C2CC2)cc2c3c(ncn3C)c(Nc3cc(C)n(C)n3)nc21; test: surviving fraction relative to DMSO-only wells; higher = less growth inhibition; conditions: exposure time: 5 days
Procedure, shortened: (§1)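 Tumour cell lines in log phase were plated in 384-well plates at 250–500 cells per well, then, after 24 hours, exposed continuously for five days to inhibitors at 0.5, 1, 5, 10, 50, 100, 500 and 1000 nM. Viability came from CellTiter-Glo luminescence, and surviving fraction is that signal normalised to the median of DMSO-only wells. Plates were read after 10 minutes at room temperature, and each line, screened three times, was kept only when replicate Pearson r was >0.7 and median Z' was >0.3.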

ABIRATERONE = compound: C[C@]12CC[C@H](O)CC1=CC[C@@H]1[C@@H]2CC[C@]2(C)C(c3cccnc3)=CC[C@@H]12 [ABIRATERONE]; test: as above; conditions: exposure time: 5 days
Procedure, shortened: as §1

Test System | surviving fraction ([1]; 0.5 nM) | surviving fraction ([1]; 1 nM) | surviving fraction ([1]; 5 nM) | surviving fraction ([1]; 10 nM) | surviving fraction ([1]; 50 nM) | surviving fraction ([1]; 100 nM) | surviving fraction ([1]; 500 nM) | surviving fraction ([1]; 1000 nM) | surviving fraction (ABIRATERONE; 0.5 nM) | surviving fraction (ABIRATERONE; 1 nM) | surviving fraction (ABIRATERONE; 5 nM) | surviving fraction (ABIRATERONE; 10 nM) | surviving fraction (ABIRATERONE; 50 nM) | surviving fraction (ABIRATERONE; 100 nM) | surviving fraction (ABIRATERONE; 500 nM) | surviving fraction (ABIRATERONE; 1000 nM)
YAMATO SYNOVIAL | 1.22 ± 0.059 | 1.21 ± 0.076 | 1.234 ± 0.012 | 1.19 ± 0.027 | 1.4 ± 0.081 | 1.32 ± 0.15 | 1.327 ± 0.0092 | 1.14 ± 0.023 | 1.37 ± 0.033 | 1.52 ± 0.058 | 1.48 ± 0.12 | 1.45 ± 0.14 | 1.39 ± 0.14 | 1.46 ± 0.078 | 1.38 ± 0.025 | 1.22 ± 0.14
COLO320DM LARGE INTESTINE | 1.03 ± 0.053 | 1.11 ± 0.0081 | 1.15 ± 0.1 | 1.08 ± 0.11 | 1.17 ± 0.14 | 1.18 ± 0.095 | 1.14 ± 0.063 | 1.27 ± 0.22 | 1.13 ± 0.084 | 1.09 ± 0.033 | 1.11 ± 0.07 | 1.17 ± 0.057 | 1.26 ± 0.19 | 1.1 ± 0.062 | 1.2 ± 0.38 | 1.02 ± 0.027
VP229 BREAST | 0.983 ± 0.11 | 1.04 ± 0.14 | 1.02 ± 0.21 | 1.06 ± 0.14 | 1.15 ± 0.13 | 1.09 ± 0.12 | 1.23 ± 0.1 | 1.14 ± 0.034 | 1.03 ± 0.052 | 0.99 ± 0.032 | 0.997 ± 0.1 | 1.09 ± 0.1 | 1.03 ± 0.013 | 1.04 ± 0.03 | 1.26 ± 0.16 | 1.11 ± 0.16
U2OS BONE | 0.998 ± 0.025 | 1.03 ± 0.029 | 1.05 ± 0.023 | 1.02 ± 0.022 | 1.07 ± 0.053 | 1.077 ± 0.0072 | 1.03 ± 0.011 | 1.05 ± 0.013 | 1.04 ± 0.05 | 1.03 ± 0.029 | 1.1 ± 0.035 | 1.096 ± 0.004 | 1.19 ± 0.031 | 1.08 ± 0.022 | 1.1 ± 0.016 | 1.09 ± 0.032
SCC90 HEADNECK | 0.826 ± 0.041 | 0.929 ± 0.046 | 1.05 ± 0.14 | 0.964 ± 0.091 | 0.976 ± 0.04 | 1.01 ± 0.13 | 0.875 ± 0.093 | 0.922 ± 0.061 | 1.26 ± 0.13 | 1.09 ± 0.15 | 1.25 ± 0.14 | 1.23 ± 0.18 | 1.21 ± 0.04 | 1.28 ± 0.1 | 1.23 ± 0.11 | 1.17 ± 0.062
VCAP PROSTATE | 0.98 ± 0.059 | 1.05 ± 0.12 | 1.15 ± 0.09 | 1.03 ± 0.051 | 1.11 ± 0.11 | 1.13 ± 0.18 | 1.06 ± 0.078 | 1.06 ± 0.092 | 1.13 ± 0.024 | 1.07 ± 0.083 | 1.19 ± 0.049 | 1.12 ± 0.073 | 1.22 ± 0.1 | 1.18 ± 0.18 | 1.02 ± 0.1 | 0.967 ± 0.11
SG32 HEADNECK | 0.996 ± 0.081 | 1.17 ± 0.013 | 1.22 ± 0.2 | 1.22 ± 0.25 | 0.95 ± 0.19 | 0.98 ± 0.12 | 1.02 ± 0.24 | 0.86 ± 0.022 | 1.18 ± 0.12 | 1.29 ± 0.2 | 1.13 ± 0.2 | 1.22 ± 0.11 | 1.15 ± 0.05 | 1.17 ± 0.12 | 1.13 ± 0.16 | 1.21 ± 0.19
MDAMB157 BREAST | 0.935 ± 0.14 | 0.923 ± 0.06 | 0.93 ± 0.042 | 0.935 ± 0.071 | 0.836 ± 0.059 | 0.89 ± 0.068 | 0.837 ± 0.059 | 0.829 ± 0.053 | 0.85 ± 0.017 | 0.892 ± 0.1 | 0.912 ± 0.081 | 1.12 ± 0.1 | 1.01 ± 0.092 | 1.09 ± 0.14 | 1.01 ± 0.1 | 0.957 ± 0.11
HCC1806 BREAST | 0.959 ± 0.2 | 0.993 ± 0.095 | 1.13 ± 0.043 | 1.04 ± 0.089 | 1.02 ± 0.11 | 1.21 ± 0.1 | 0.982 ± 0.078 | 0.885 ± 0.12 | 1.12 ± 0.11 | 1.08 ± 0.17 | 1.19 ± 0.024 | 1.08 ± 0.021 | 1.19 ± 0.051 | 1.2 ± 0.11 | 1.05 ± 0.085 | 0.953 ± 0.12
SIHA CERVIX | 0.868 ± 0.064 | 0.906 ± 0.052 | 0.991 ± 0.036 | 0.965 ± 0.041 | 1.04 ± 0.068 | 1.08 ± 0.057 | 0.983 ± 0.11 | 0.91 ± 0.078 | 1.16 ± 0.013 | 1.15 ± 0.016 | 1.18 ± 0.11 | 1.12 ± 0.086 | 1.18 ± 0.064 | 1.22 ± 0.046 | 1.27 ± 0.06 | 1.16 ± 0.056
MHM BONE | 0.979 ± 0.035 | 0.964 ± 0.015 | 1 ± 0.022 | 0.995 ± 0.013 | 1 ± 0.019 | 0.999 ± 0.0044 | 0.976 ± 0.024 | 0.949 ± 0.022 | 1.03 ± 0.038 | 1.005 ± 0.0032 | 1.03 ± 0.027 | 1.05 ± 0.02 | 1.07 ± 0.024 | 1.05 ± 0.015 | 1.03 ± 0.018 | 1.05 ± 0.034
HOSMNG BONE | 1 ± 0.071 | 0.979 ± 0.11 | 0.992 ± 0.068 | 0.985 ± 0.07 | 1.04 ± 0.061 | 1.08 ± 0.08 | 1.01 ± 0.1 | 1.09 ± 0.038 | 0.985 ± 0.035 | 0.99 ± 0.049 | 1 ± 0.077 | 0.973 ± 0.039 | 1.08 ± 0.042 | 1.1 ± 0.087 | 1.05 ± 0.096 | 1.08 ± 0.014
C33A CERVIX | 0.809 ± 0.035 | 0.801 ± 0.11 | 0.926 ± 0.082 | 1.03 ± 0.19 | 0.895 ± 0.049 | 1.08 ± 0.15 | 0.768 ± 0.025 | 0.657 ± 0.1 | 1.19 ± 0.19 | 1.13 ± 0.059 | 1.19 ± 0.063 | 1.03 ± 0.022 | 1.12 ± 0.08 | 1.17 ± 0.068 | 1.2 ± 0.027 | 1.06 ± 0.13
BT549 BREAST | 1.14 ± 0.22 | 1 ± 0.046 | 1.06 ± 0.11 | 1.18 ± 0.12 | 0.934 ± 0.19 | 0.965 ± 0.2 | 1.04 ± 0.1 | 0.887 ± 0.13 | 0.768 ± 0.079 | 1.07 ± 0.083 | 0.991 ± 0.012 | 1.02 ± 0.059 | 0.92 ± 0.067 | 1.15 ± 0.13 | 1.07 ± 0.038 | 1.2 ± 0.17
MDAMB231 BREAST | 0.965 ± 0.026 | 0.9749 ± 0.0034 | 0.975 ± 0.038 | 1.01 ± 0.011 | 1.01 ± 0.02 | 1.02 ± 0.014 | 0.926 ± 0.02 | 0.9 ± 0.025 | 0.991 ± 0.011 | 0.998 ± 0.048 | 1.02 ± 0.023 | 0.992 ± 0.031 | 1.02 ± 0.013 | 1.03 ± 0.024 | 1.02 ± 0.014 | 0.942 ± 0.027
SG27 HEADNECK | 0.996 ± 0.14 | 0.974 ± 0.089 | 1.01 ± 0.067 | 1.01 ± 0.056 | 1.02 ± 0.077 | 1.03 ± 0.11 | 0.915 ± 0.074 | 0.931 ± 0.17 | 1.09 ± 0.064 | 0.971 ± 0.11 | 1.05 ± 0.067 | 0.927 ± 0.039 | 0.867 ± 0.066 | 0.997 ± 0.08 | 0.957 ± 0.14 | 0.985 ± 0.07
SYO1 SYNOVIAL | 0.939 ± 0.069 | 0.927 ± 0.055 | 0.951 ± 0.027 | 0.917 ± 0.09 | 1.01 ± 0.051 | 0.97 ± 0.011 | 0.977 ± 0.045 | 0.98 ± 0.017 | 1.01 ± 0.048 | 1.03 ± 0.02 | 1.03 ± 0.014 | 1.01 ± 0.013 | 1.031 ± 0.0036 | 1.03 ± 0.029 | 1.01 ± 0.018 | 1.01 ± 0.062
